Earlier results as cited in publication PMC4333608 (Chemical Science, 2014).

Molecular target: T1, São Paulo metallo-β-lactamase-1 (SPM-1) (Pseudomonas aeruginosa, UniProt Q8G9Q0)
T1 sequence (Q8G9Q0 29-276): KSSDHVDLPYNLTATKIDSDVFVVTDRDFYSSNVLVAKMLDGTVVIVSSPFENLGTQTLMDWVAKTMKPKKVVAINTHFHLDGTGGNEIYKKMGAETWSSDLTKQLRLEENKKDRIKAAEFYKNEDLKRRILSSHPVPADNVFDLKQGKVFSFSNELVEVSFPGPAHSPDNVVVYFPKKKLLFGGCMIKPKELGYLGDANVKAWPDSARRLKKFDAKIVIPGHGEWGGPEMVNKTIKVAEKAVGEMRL
Experiment: enzyme inhibition IC50
Type: biochemical

SMILES: O=C(O)c1cc(CS)cc(CS)c1 [3,5-bis(mercaptomethyl)benzoic acid]
- IC50: 700 nM
